1 compound from patent US20230181746A1, “BENZOYLHYDRAZIDE-DERIVED HDAC DEGRADERS AS THERAPEUTICS FOR TREATING CANCER AND OTHER HUMAN DISEASES” (University of Florida Research Foundation, Inc., priority 2020, published 2023) can be followed below.

The target in one assay is T1, HDAC6 (Homo sapiens, UniProt Q9UBN7).
T1 construct: endogenous in cells; host or cells: MDA-MB-468
T1 sequence (Q9UBN7 1-1215): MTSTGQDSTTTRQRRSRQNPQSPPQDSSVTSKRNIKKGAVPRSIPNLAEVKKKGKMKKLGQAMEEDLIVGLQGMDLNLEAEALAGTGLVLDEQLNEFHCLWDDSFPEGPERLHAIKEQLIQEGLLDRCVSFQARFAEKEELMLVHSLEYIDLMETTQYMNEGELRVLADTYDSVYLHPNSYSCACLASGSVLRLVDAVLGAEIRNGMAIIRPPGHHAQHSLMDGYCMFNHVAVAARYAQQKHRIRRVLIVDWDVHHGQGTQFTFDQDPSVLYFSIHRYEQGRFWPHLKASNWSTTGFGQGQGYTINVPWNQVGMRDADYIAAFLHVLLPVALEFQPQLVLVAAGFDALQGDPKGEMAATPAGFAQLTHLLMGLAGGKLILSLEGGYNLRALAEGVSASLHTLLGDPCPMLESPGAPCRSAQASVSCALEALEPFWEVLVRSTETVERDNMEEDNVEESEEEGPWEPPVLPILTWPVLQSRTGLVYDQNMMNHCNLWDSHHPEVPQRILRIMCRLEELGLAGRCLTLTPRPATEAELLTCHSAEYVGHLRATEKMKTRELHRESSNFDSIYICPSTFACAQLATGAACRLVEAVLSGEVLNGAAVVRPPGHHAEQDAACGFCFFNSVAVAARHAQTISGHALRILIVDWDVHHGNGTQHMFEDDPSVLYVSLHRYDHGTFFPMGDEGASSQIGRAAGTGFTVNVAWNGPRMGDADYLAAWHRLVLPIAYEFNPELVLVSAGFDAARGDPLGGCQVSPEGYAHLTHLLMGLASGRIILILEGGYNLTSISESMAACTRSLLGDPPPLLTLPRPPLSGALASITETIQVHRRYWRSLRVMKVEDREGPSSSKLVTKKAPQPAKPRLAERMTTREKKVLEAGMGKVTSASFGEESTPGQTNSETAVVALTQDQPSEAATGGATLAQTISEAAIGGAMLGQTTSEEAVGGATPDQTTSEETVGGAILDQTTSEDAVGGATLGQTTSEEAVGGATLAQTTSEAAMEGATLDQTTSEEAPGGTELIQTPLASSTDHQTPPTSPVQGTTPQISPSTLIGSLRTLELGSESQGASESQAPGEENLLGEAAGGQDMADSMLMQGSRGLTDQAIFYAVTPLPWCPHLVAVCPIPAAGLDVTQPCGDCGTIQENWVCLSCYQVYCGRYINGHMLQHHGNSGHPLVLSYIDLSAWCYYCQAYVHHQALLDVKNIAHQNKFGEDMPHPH
Put plainly: HDAC6 protein level in MDA-MB-468 cells, Western blot. Format: cell-based. The conditions noted are these: 14 h. The procedure:
FIG. 3A: Western blot showing HDAC protein levels in MDA-MB-468 cells treated with the indicated concentration of XZ9002 for 14 h. FIG. 3B: pretreatment with 1 μM MG132, or 10 μM VHL032 for 1 h blocked the degradation of HDAC3 by XZ9002 {125 nM}. […] NC: XZ9002-NC. FIG. 3C: time-dependent experiment in MDA-MB-468 cells after treatment with 125 nM XZ9002 at the indicated time points. FIG. 3D: MDA-MB-468 cells were incubated with 125 nM of XZ9002 for 14 h followed by drug washout, and incubation of the cells in drug-free medium for an additional time. Data are presented as representative figures of two independent experiments.
Cell lines were obtained from ATCC and subsequently authenticated. Cells were cultured with DMEM supplemented with 10% bovine calf serum, penicillin to 10 units/mL, and streptomycin to 10 μg/mL. For viability assays, 5,000 cells/well were seeded in 96-well plates. Compounds at a specified concentration or DMSO were added 24 h later. Viability assays were performed 72 h after compound addition using the CellTiter-Glo reagents (Promega). For colony formation assay, cells (˜1,000 cells/well) were seeded in a 24-well plate in quadruplicates. At 24 h after seeding, DMSO, XZ9002, or XZ9002-NC were added at a specified concentration. […]
(In general: Immunoblotting shows a protein as a band on a membrane.)

Assay [1] relates to breast cancer cell lines MCF7, T47D, MDA-MB-468, HCC-1143 and BT479. Put plainly: Clonogenic growth assay, breast cancer cell lines. Format: cell-based. The settings on record: compared with XZ9002-NC. The procedure: FIGS. 8A-8B show the cellular activity of XZ9002. […] Cells were lysed for WB. The relative HDAC3 protein level in each sample is shown. […] The indicated BC cell lines were exposed to DMSO, XZ9002, or XZ9002-NC at the indicated concentrations. Colonies were fixed and stained.
Cell lines were obtained from ATCC and subsequently authenticated. Cells were cultured with DMEM supplemented with 10% bovine calf serum, penicillin to 10 units/mL, and streptomycin to 10 μg/mL. For viability assays, 5,000 cells/well were seeded in 96-well plates. Compounds at a specified concentration or DMSO were added 24 h later. Viability assays were performed 72 h after compound addition using the CellTiter-Glo reagents (Promega). For colony formation assay, cells (˜1,000 cells/well) were seeded in a 24-well plate in quadruplicates. At 24 h after seeding, DMSO, XZ9002, or XZ9002-NC were added at a specified concentration. Medium was replaced with freshly prepared medium containing DMSO, XZ9002 or XZ9002-NC every five days until visible colonies appeared, typically in 15 to 20 days after initial cell seeding. Cells were fixed with 4% paraformaldehyde for 15 min and stained with 2% methylene blue in 20% ethanol for 30 min to 1 h. The cells were washed twice with distilled water and dried in air. For western blotting, cell cultures were exposed to compounds as indicated in relevant figures. […]

The target in a further assay is HDAC3 (Homo sapiens, UniProt O15379). The assay can be described thus: HDAC3 degradation in MDA-MB-231 xenograft tumors. Format: in vivo. The conditions noted are these: female NSG mice, MDA-MB-231 xenografts, 50 mg/kg i.p., tumors 24 h after dosing. More on the design: from tissue; host or cells: MDA-MB-231 xenograft tumours from NSG mice. The procedure: NSG mice bearing MDA-MB-231 xenografts were dosed with vehicle or XZ9002 (50 mg/kg) by i.p. Tumors were dissected from euthanized mice 24 h after dosing. The tumor lysates were analyzed by WB. The quantification is shown in lower panels. ***: p<0.0001 (t-test vs vehicle).
HDAC3, sequence (O15379 whole entry): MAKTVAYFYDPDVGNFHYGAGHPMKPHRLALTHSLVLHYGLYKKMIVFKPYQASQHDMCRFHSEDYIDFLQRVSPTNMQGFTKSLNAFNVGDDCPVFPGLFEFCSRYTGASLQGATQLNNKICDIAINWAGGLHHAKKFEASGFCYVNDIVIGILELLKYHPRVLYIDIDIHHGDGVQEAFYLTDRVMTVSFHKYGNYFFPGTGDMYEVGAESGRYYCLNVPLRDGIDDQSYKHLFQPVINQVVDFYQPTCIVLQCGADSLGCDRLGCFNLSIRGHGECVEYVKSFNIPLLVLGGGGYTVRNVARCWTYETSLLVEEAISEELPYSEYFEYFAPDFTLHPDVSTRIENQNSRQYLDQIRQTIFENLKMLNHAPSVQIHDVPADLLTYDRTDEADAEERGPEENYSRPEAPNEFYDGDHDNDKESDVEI
HDAC3, sequence (Q9Y618 395-498 partner limits assumed): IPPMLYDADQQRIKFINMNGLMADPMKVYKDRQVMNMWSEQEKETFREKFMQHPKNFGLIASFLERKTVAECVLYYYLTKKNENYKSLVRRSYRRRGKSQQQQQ

Regarding `CCCNNC(=O)c1ccc(-c2ccc(NC(=O)CCCCCCC(=O)N[C@H](C(=O)N3C[C@H](O)C[C@H]3C(=O)N[C@@H](C)c3ccc(-c4scnc4C)cc3)C(C)(C)C)cc2)cc1` [XZ9002, N^1—((S)-1-((2S,4R)-4-hydroxy-2-(((S)-1-(4-(4-methylthiazol-5-yl)phenyl)ethyl)carbamoyl)pyrrolidin-1-yl)-3,3-dimethyl-1-oxobutan-2-yl)-N^5-(4′-(2-propylhydrazine-1-carbonyl)-[1,1′-biphenyl]-4-yl)octanediamide], the “change in HDAC6 protein level” value at HDAC6 was “no significant changes”. For the same compound, the “suppression of colony formation” value in assay [1] is “more potent to suppress colony formation”. In addition, the “HDAC3 degradation in xenograft tumor” value at HDAC3 is reported as “effectively degrade”.
